Source: patent US6914045B2, “Glycopeptide antibiotics” (Wyeth Holdings Corporation, priority 2001, dated 2005)
Converted amounts (≈) assume the structure as drawn. Numbered stars: 1 amine (or outer) side, 2 acyl side, 3 side chain; on linkers, the order of the positions; unused ones are H or OH. Square brackets hold non-standard residues; d marks the D form. Peptide text beside a SMILES is read from it. ξ: configuration not given here. X1 = N=C1NCC(C(O)C(N[*:1])C(=O)[*:2])N1C1OC(CO)C(O)C(O)C1O; ξEnduracididine(βξ-OH,4'ξ) = N=C1NCC(C(O)C(N)C(=O)O)N1; Cha = N[CH](CC1CCCCC1)C(=O)O

Experiments:
[1] = anatomic pathology (histopathology of heart and kidney) in mice; assay type: in vivo; conditions: CD-1 mice, 20 mg/kg intravenously daily for 9 days, necropsy day 10, microscopic histopathology
Description: Samples of tissues from necropsied mice were formalin-fixed, paraffin-embedded, sectioned, stained with hematoxylin and eosin, and examined microscopically. Histopathologic findings were recorded. These findings were subjectively graded on a scale corresponding to slight, mild, moderate, marked and severe as compared to untreated controls.

Staphylococcus sp. = experiment: in vitro antibacterial evaluation, MIC by broth dilution; assay type: cell-based; conditions: broth dilution, 18 hours at 35° C.
Summary of the method: (§1)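 Broth dilution per NCCLS M7-A2 in Mueller-Hinton II medium, inoculum 5×10^5 CFU/mL, antibiotic range 64-0.06 μg/mL. MIC taken as lowest concentration inhibiting growth; Gram-positive panel includes recent clinical isolates resistant to methicillin, penicillin and/or vancomycin.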

Enterococcus sp. = experiment: as above; assay type: cell-based; conditions: broth dilution, 18 hours at 35° C.
Summary of the method: as §1

Streptococcus sp. = experiment: as above; assay type: cell-based; conditions: broth dilution, 18 hours at 35° C.
Summary of the method: as §1

[2] = clinical pathology (serum clinical chemistry) in mice; assay type: in vivo; conditions: CD-1 mice, 20 mg/kg intravenously daily for 9 days, sera day 10
Description: 20-day-old CD-1 mice were divided into a vehicle control group (5 mice) and a treatment group (5 mice). Samples of glycopeptide antibiotics were administered at 20 mg/kg intravenously daily for 9 days.

Escherichia coli = experiment: in vitro antibacterial evaluation, MIC by broth dilution; assay type: cell-based; conditions: broth dilution, 18 hours at 35° C.
Summary of the method: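 Broth dilution MIC per NCCLS M7-A2 in Mueller-Hinton II medium, inoculum 5×10^5 CFU/mL, antibiotic range 64-0.06 μg/mL. MIC taken as lowest concentration inhibiting growth.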

N=C1NCC(C(O)C2NC(=O)C(CC3CCCCC3)NC(=O)C(CC3CCCCC3)NC(=O)CNC(=O)C(CO)NC(=O)C(C(O)C3CNC(=N)N3C3OC(CO)C(O)C(O)C3O)NC2=O)N1 (stereo not drawn) [Example 52, Cyclo[3-cyclohexylalanyl-3-cyclohexylalanyl-3-(2-iminoimidazolidin-4-yl)seryl-3-(3-hexopyranosyl-2-iminoimidazolidin-4-yl)serylserylglycyl]] (cyclo(G[Cha][Cha][ξEnduracididine(βξ-OH,4'ξ)][X1]S); configuration not given here)
Anatomical Pathology (Day 10), Heart [1]: 0 | Anatomical Pathology (Day 10), Kidney [1]: +++ | MIC Staphylococcus aureus (ATCC 29213) (Staphylococcus sp.; strain ATCC 29213): 16 µg/mL (≈ 16.8 µM) | MIC Staphylococcus aureus (GC 1131) (Staphylococcus sp.; strain GC 1131): 16 µg/mL (≈ 16.8 µM) | MIC Staphylococcus aureus (GC 3051) (Staphylococcus sp.; strain GC 3051): 16 µg/mL (≈ 16.8 µM) | MIC Staphylococcus aureus (GC 3053) (Staphylococcus sp.; strain GC 3053): 32 µg/mL (≈ 33.6 µM) | MIC Staphylococcus aureus (GC 4541) (Staphylococcus sp.; strain GC 4541): 16 µg/mL (≈ 16.8 µM) | MIC Staphylococcus aureus (GC 4542) (Staphylococcus sp.; strain GC 4542): 8 µg/mL (≈ 8.39 µM) | MIC Staphylococcus aureus-SMITH (GC 4543) (Staphylococcus sp.; strain GC 4543): 16 µg/mL (≈ 16.8 µM) | MIC Staphylococcus aureus (GC 4544) (Staphylococcus sp.; strain GC 4544): 16 µg/mL (≈ 16.8 µM) | MIC Staphylococcus aureus (GC 4545) (Staphylococcus sp.; strain GC 4545): 8 µg/mL (≈ 8.39 µM) | MIC Staphylococcus haemolyticus (GC 4546) (Staphylococcus sp.; strain GC 4546): 4 µg/mL (≈ 4.2 µM) | MIC Coagulase Negative Staphylococcus (GC 4547) (Staphylococcus sp.; strain GC 4547): 8 µg/mL (≈ 8.39 µM) | MIC Coagulase Negative Staphylococcus (GC 4548) (Staphylococcus sp.; strain GC 4548): 8 µg/mL (≈ 8.39 µM) | MIC Coagulase Negative Staphylococcus (GC 4549) (Staphylococcus sp.; strain GC 4549): 4 µg/mL (≈ 4.2 µM) | MIC Coagulase Negative Staphylococcus (GC 4551) (Staphylococcus sp.; strain GC 4551): 8 µg/mL (≈ 8.39 µM) | MIC Enterococcus faecalis (ATCC 29212) (Enterococcus sp.; strain ATCC 29212): 64 µg/mL (≈ 67.2 µM) | MIC Enterococcus faecalis (GC 2242) (Enterococcus sp.; strain GC 2242): 32 µg/mL (≈ 33.6 µM) | MIC Enterococcus faecium (GC 2243) (Enterococcus sp.; strain GC 2243): 16 µg/mL (≈ 16.8 µM) | MIC Enterococcus faecalis (GC 2691) (Enterococcus sp.; strain GC 2691): 32 µg/mL (≈ 33.6 µM) | MIC Enterococcus faecalis (GC 3059) (Enterococcus sp.; strain GC 3059): 32 µg/mL (≈ 33.6 µM) | MIC Enterococcus faecalis (GC 4552) (Enterococcus sp.; strain GC 4552): 32 µg/mL (≈ 33.6 µM) | MIC Enterococcus faecalis (GC 4553) (Enterococcus sp.; strain GC 4553): 16 µg/mL (≈ 16.8 µM) | MIC Enterococcus faecalis (GC 4554) (Enterococcus sp.; strain GC 4554): 64 µg/mL (≈ 67.2 µM) | MIC Enterococcus faecium (GC 4556) (Enterococcus sp.; strain GC 4556): 32 µg/mL (≈ 33.6 µM) | MIC Enterococcus faecium (GC 4557) (Enterococcus sp.; strain GC 4557): 8 µg/mL (≈ 8.39 µM) | MIC Enterococcus avium (GC 4558) (Enterococcus sp.; strain GC 4558): 32 µg/mL (≈ 33.6 µM) | MIC Enterococcus faecalis (GC 6189) (Enterococcus sp.; strain GC 6189): 32 µg/mL (≈ 33.6 µM) | MIC Streptococcus pneumoniae (ATCC 6301) (Streptococcus sp.; strain ATCC 6301): 8 µg/mL (≈ 8.39 µM) | MIC Streptococcus pneumoniae (GC 1894) (Streptococcus sp.; strain GC 1894): 8 µg/mL (≈ 8.39 µM) | MIC Streptococcus pyogenes (GC 4563) (Streptococcus sp.; strain GC 4563): 8 µg/mL (≈ 8.39 µM) | MIC Streptococcus agalactiae (GC 4564) (Streptococcus sp.; strain GC 4564): 8 µg/mL (≈ 8.39 µM) | MIC Streptococcus pneumoniae (GC 4565) (Streptococcus sp.; strain GC 4565): 16 µg/mL (≈ 16.8 µM) | Clinical Chemistry (Day 10) % of Control, BUN [2]: 211% | MIC Escherichia coli (ATCC 25922) (Escherichia coli; strain ATCC 25922): 64 µg/mL (≈ 67.2 µM) | MIC Escherichia coli (GC 4559) (Escherichia coli; strain GC 4559): 64 µg/mL (≈ 67.2 µM) | MIC Escherichia coli (GC 4560) (Escherichia coli; strain GC 4560): 16 µg/mL (≈ 16.8 µM)
